Test results published in ChEMBL document CHEMBL1155085, “Propindilactones E-J, Schiartane Nortriterpenoids from Schisandra propinqua var. propinqua” (J Nat Prod, 2008).

Columns and labels:
Assay type in all cases: functional, cell-based
HT-29 = test: Cytotoxicity against human HT29 cells after 72 hrs by sulforhodamine B assay; details: HT-29, 72 h
K562 = test: Cytotoxicity against human K562 cells after 72 hrs by sulforhodamine B assay; details: K562, 72 h
A549 = test: Cytotoxicity against human A549 cells after 72 hrs by sulforhodamine B assay; details: A549, 72 h

Measured: IC50

C[C@@H]([C@@H](O)[C@@H]1C[C@@H](C)C(=O)O1)[C@H]1[C@@H](O)[C@H](O)[C@]2(O)[C@@H]3C[C@H]4C(C)(C)O[C@@H]5CC(=O)O[C@@]54CC[C@@]3(O)CC[C@]12C [PRPINDILACETONES H]
> 100 µM: HT-29 | K562 | A549

CC(=O)O[C@@H]1C[C@]2(O)CC[C@]34OC(=O)C[C@H]3OC(C)(C)[C@@H]4C[C@H]2[C@]23O[C@H]2C[C@H]([C@@H](C)[C@H]2CC=C(C)C(=O)O2)[C@@]13C [PRPINDILACETONES J]
> 100 µM: HT-29 | K562 | A549

C[C@@H]([C@@H](O)[C@@H]1C[C@@H](C)C(=O)O1)[C@H]1C[C@H](O)[C@]2(O)[C@@H]3C[C@H]4C(C)(C)O[C@@H]5CC(=O)O[C@@]54CC[C@@]3(O)CC[C@]12C [PRPINDILACETONES I]
> 100 µM: HT-29 | K562 | A549
